Target: Cyclin-dependent kinase 2/cyclin E1 (Homo sapiens, UniProt P24941)
Assay: Inhibition of N-terminal GST-tagged wild-type full-length human CDK2 (1 to 298 residues)/FLAG-tagged human Cyclin E1 (1 to 410 residues) extracted from baculovirus infected Sf21 cells using ULight-labeled eIF4E-binding protein-1 as substrate incubated for 60 mins in the presence of ATP by HTRF assay

Row | IC50 | Compound
1 | ≤ 10 nM | CC(C)Oc1c(-c2cn[nH]c2)ccn2nc(NC3CCOCC3)nc12
2 | ≤ 10 nM | C[C@@H](Oc1c(-c2cn[nH]c2)ncn2nc(NC3CCOCC3)nc12)C(F)(F)F
3 | ≤ 10 nM | C[C@@H](Oc1c(-c2cn[nH]c2)ncn2nc(NC3CCOCC3)nc12)C(F)F
4 | ≤ 10 nM | C[C@@H](Oc1c(-c2cn[nH]c2)ccn2nc(NC3CCOCC3)nc12)C(F)(F)F
5 | ≤ 10 nM | C[C@@H](Oc1c(-c2cn[nH]c2)ccn2nc(NC3CCOCC3)nc12)C(F)F
6 | ≤ 10 nM | CC(C)Oc1c(-c2cn[nH]c2)ncn2nc(NC3CCOCC3)nc12

Source: ChEMBL document CHEMBL6103604, “Novel Bicyclic Amines as CDK2 Inhibitors for Treating Metastatic Breast Cancer or Metastatic Lung Cancer” (ACS Med Chem Lett, 2025)
